The results in this text go back to patent publication EP0104826A2, “Immunomodulator and method of use for immunomodulation” (FUJISAWA PHARMACEUTICAL CO., LTD., priority 1982, dated 1984).

What all share (assay type): in vivo
For test [1], the system named is antibody forming capacities. Nature of the test: Antibody forming capacity (PFC-SRBC) in mice immunosuppressed with cyclophosphamide. Conditions: BDF1 mice; Cyclophosphamide (22.5 mg/kg) i.p. + Saline. The procedure:
Female BDF1 (8 weeks in age) mice were injected intraperitoneally with cyclophosphamide (22.5 mg/kg) 4 days before immunization with 5 x 10^8 SRBC. Samples were administered to mice i.p. from four days before immunization, every day for five days.
Mouse splenic lymphocytes producing antibody against SRBC were quantitated by using Cunningham modification method described previously.

The subject of a further test is thymus. Nature of the test: Dexamethasone-induced thymus atrophy in mice. Conditions: ddY mice; dexamethasone 1 ug/ml in drinking water, no sample; n=5. As for the experimental part: Five week-old ddY mice(male) were used. Samples were given subcutaneously twice per day from day 0 to day 2 of the experiment. Five hours after first medication on day 0, mice were supplied with drinking water containing 1 ug/ml of dexamethasone.
At day 2, the weight of thymus of the treated mice was compared with that of the nontreated controls.

Test [2] deals with antibody forming capacities. Nature of the test: Antibody forming capacity (PFC-SRBC) in mice immunosuppressed with mitomycin C. Conditions: BDF1 mice; Mitomycin C (1.0 mg/kg) i.p. + Saline. The procedure:
Female BDF1 (8 weeks in age) mice were injected intraperitoneally with mitomycin C (1 mg/kg) from four days before immuization with 5 x 10^8 SRBC, every day for three days. Samples also were administered to mice intraperitoneally from four days before immunization, every day for five days.
At day 9, mice were sacrificed and the number of direct plaque forming cells per spleen was measured by using Cunningham modification method.

For `O=P1(N(CCCl)CCCl)NCCCO1` (stereo not drawn) [Cyclophosphamide, reference compound], in test [1], the “PFC-SRBC/spleen (average number of 5 mice/group)” value was 8.46 x 10^4 PFC-SRBC/spleen. Molecule `C[C@@H]1C[C@H]2[C@@H]3CCC4=CC(=O)C=C[C@]4(C)[C@@]3(F)[C@@H](O)C[C@]2(C)[C@@]1(O)C(=O)CO` [Dexamethasone, reference compound] registered a Thymus weight with thymus of 57.2 mg/mouse. As for `CO[C@@]12[C@H](COC(N)=O)C3=C(C(=O)C(C)=C(N)C3=O)N1C[C@@H]1N[C@@H]12` [Mitomycin C, reference compound], the “PFC-SRBC/spleen (average number of 5 mice/group)” value in test [2] is 12.65 x 10^4 PFC-SRBC/spleen.
